{
  "source": "patent US20260218132A1",
  "about": "“METHODS AND MATERIALS FOR GENERATING STEM CELL-DERIVED ENDOCRINE CELL TYPES” (Mayo Foundation for Medical Education and Research, priority 2023, published 2026)",
  "key": {"delta progenitor cells [1]": {"test_system": "delta progenitor cells", "assay": "High-content small molecule screen on delta progenitor cells (step 5)", "type": "cell-based, human", "conditions": "library screened at 20 μM, 2 μM and 0.2 μM", "description": "(§1) Compounds that increased the percentage of Pre-Delta (PD) cells (positive for somatostatin (SST) while negative for both insulin (INS) and glucagon (GCG)) and reduced the percentage of polyhormonal cells were considered as hits. […] The library was screened at 20 μM, 2 μM, and 0.2 μM final concentrations (FIG. 22)."}, "PP cells": {"test_system": "PP cells", "assay": "PP cells treated with FGF receptor inhibitors along with RA, somatostatin expressing cells", "type": "cell-based, human", "conditions": "control having only RA, six-well plates, 5 days", "description": "(§2) The cell clusters collected during the course of differentiation at different stages were dissociated into single cell suspension by treating with TrypLE Express at 37° C. for 10 minutes after washing twice with phosphate buffered saline (PBS). The enzyme activity was quenched by adding equal volume of S3 media to prevent further degradation, and dispersed single cells were washed with PBS, fixed in 4% paraformaldehyde (PFA) for 20 minutes and subsequently stored at 4° C. until further use. On the day of staining, the cells were passed through 40 μm filter and washed twice with PBS before permeabilizing in block solution (PBS+0.1% Triton X-100+5% donkey serum; PBST). […] The stained cells were acquired in Attune flow cytometer and were analyzed using FlowJo v10 software. […]\nTo further explore the specificity of inhibition of FGF receptors, PP cells were treated with five additional FGF receptor inhibitors (AZD4547, erdafitinib, roblitinib, pemigatinib, or BGJ398) along with RA (FIG. 7). […] To find an effective concentration of these compounds, differentiated PP cells were transferred to six-well plates and treated with either control having only RA or each FGF receptor inhibitors along with RA for 5 days and quantified the percentage of somatostatin expressing cells."}, "pre-delta cells [2]": {"test_system": "pre-delta cells", "assay": "High-content small molecule screen and dose response on pre-delta cells (step 6)", "conditions": "for cell loss at higher concentration: dose response, step 6", "quoted_text": "Clusters were collected from either Stage 3, or Stage 4, or Stage 5 completed flasks, washed three times with PBS, dispersed into single cells using TrypLE Express for 10 minutes, and quenched using S3 media. […] Chemical compounds were then introduced to each well and incubated at 37° C. in a humidified atmosphere. The fresh media and compounds were added every other day by replacing the spent media. After 5 days for Stage 3 completed cells, 4 days for Stage 4 completed cells, and 7 days for Stage 5 completed cells of incubation, the cells were fixed with 4% PFA and stained for insulin, glucagon, and somatostatin as described herein. Stained cells were imaged with the Cellomics Scan Version 6.6.0 (Thermo Scientific HCS Studio). Twenty-five view fields were captured for each well and analyzed. The percentage of cells expressing only somatostatin was calculated for each well.\nThus, to further increase the percentage of monohormonal SC-δ cells, a small molecule screen on pre-delta cells was conducted, as described earlier with a similar set of criteria (FIG. 2D)."}, "PDX1^+/NKX6.1^− PP cells": {"test_system": "PDX1^+/NKX6.1^− PP cells", "assay": "Differentiation of PP cells to delta progenitor cells (stage 4), hormone expression by flow cytometry", "type": "cell-based, human", "conditions": "stage 3 cells treated independently or in combination for 5 days", "description": "After 72 hours of culture in mTeSR, the clusters of HUES8 cells were allowed to settle at the bottom of the spinner flask, and spent media was replaced with stage specific differentiation media containing specific growth factors and small molecules.\n(§3) The differentiation was carried out in six stages. The generation of PP1 cells from HUES8 cells was carried out using prior protocols with modifications (see, e.g., Pagliuca et al., Cell, 159:428-439 (2014); and Peterson et al., Nat. Commun., 11:Article No. 2241 (14 pages) (2020)); and the delta cell differentiation was further carried out using PP1 cells. The media changes for differentiation were as follows:\nas §2, with “use.” for “use. On the day of staining, the cells were passed through 40 μm filter and washed twice with PBS before permeabilizing in block solution (PBS+0.1% Triton X-100+5% donkey serum; PBST).”"}, "delta progenitor cells [3]": {"test_system": "delta progenitor cells", "assay": "Differentiation of delta progenitor cells to pre-delta cells (stage 5), flow cytometry", "type": "cell-based, human", "description": "as §3\n(§4) The cell clusters collected during the course of differentiation at different stages were dissociated into single cell suspension by treating with TrypLE Express at 37° C. for 10 minutes after washing twice with phosphate buffered saline (PBS). The enzyme activity was quenched by adding equal volume of S3 media to prevent further degradation, and dispersed single cells were washed with PBS, fixed in 4% paraformaldehyde (PFA) for 20 minutes and subsequently stored at 4° C. until further use. On the day of staining, the cells were passed through 40 μm filter and washed twice with PBS before permeabilizing in block solution (PBS+0.1% Triton X-100+5% donkey serum; PBST). After 40 minutes of blocking, the cells were incubated with primary antibodies in block solution for 1 hour at room temperature (RT), washed twice with PBST, and then incubated with appropriate secondary antibodies in block solution for 1 hour at RT. Finally, cells were washed twice with PBST and resuspended in PBS at a concentration of 1×10^6 cells/mL. The stained cells were acquired in Attune flow cytometer and were analyzed using FlowJo v10 software. The Pdx1 (R&D Systems, AF2419) antibody was used at 1:250, Nkx6.1 (Iowa Hybridoma Bank, F55A12) at 1:100, insulin (Iowa Hybridoma Bank, GN-ID4) at 1:250, glucagon (LSBio, LS-B10219) at 1:25,000, and somatostatin (Santa Cruz Biotechnologies, SC-25262) at a dilution of 1:8000. The secondary antibodies are either donkey-anti-goat-Alexa Fluor 488 (Invitrogen, A-11055, 1:1000), donkey-anti-rabbit-Alexa Fluor 488 (Invitrogen, A-21206, 1:1000), donkey-anti-rat-Alexa Fluor 594 (Invitrogen, A-21209, 1:1000), or donkey-anti-mouse-Alexa Fluor 647 (Invitrogen, A-31571 1:1000).\nas §1"}, "pre-delta cells [4]": {"test_system": "pre-delta cells", "assay": "Differentiation of pre-delta cells to SCδ cells (stage 6), flow cytometry and immunohistochemistry", "type": "cell-based, human", "description": "as §3, §4\nThe differentiated cell clusters or human islets were fixed in 4% PFA and stored at 4° C. until further use. The clusters were washed three times with PBS, set in Histogel (Thermo), embedded in paraffin, and sectioned at 4 μm for histological analysis. Antigen retrieval was performed in citrate buffer (pH 6.5) for 1 hour in boiling water bath on deparaffinized and rehydrated sections, and then allowed to cool for 40 minutes. Sections were then permeabilized and blocked in block solution (PBS+0.1% Triton X-100+5% donkey serum; PBST) for 40 minutes. Primary antibodies were added at appropriate dilutions and incubated overnight at 4° C. On the following day, secondary antibodies were added for 1 hour at room temperature. After thorough rinse with PBST, sections were mounted in Vectashield (Vector Laboratories), covered with coverslips, and sealed with nail polish. The sections were visualized using Zeiss microscope. The secondary antibodies are either donkey-anti-goat-Alexa Fluor 488 (Invitrogen, A-11055, 1:1000), donkey-anti-rabbit-Alexa Fluor 488 (Invitrogen, A-21206, 1:1000), donkey-anti-rat-Alexa Fluor 594 (Invitrogen, A-21209, 1:1000), or donkey-anti-mouse-Alexa Fluor 647 (Invitrogen, A-31571 1:1000)."}},
  "data": [
    {"smiles": "c1ccc2c(-c3cnn4cc(-c5ccc(N6CCNCC6)cc5)cnc34)ccnc2c1", "note": "[LDN193189, 4-[6-(4-piperazin-1-ylphenyl)pyrazolo[1,5-a]pyrimidin-3-yl]quinolin]", "values": [
      {"measurement": "screen outcome, step 5 (increase of pre-delta cells, fewer polyhormonal cells)", "setting": "delta progenitor cells [1]", "value": "primary hits"}
    ]},
    {"smiles": "CC1=C(/C=C/C(C)=C/C=C/C(C)=C/C(=O)O)C(C)(C)CCC1", "note": "[RA, retinoic acid]", "values": [
      {"measurement": "somatostatin expressing cells", "setting": "PP cells", "value": "2.53±0.15", "unit": "%"}
    ]},
    {"smiles": "C[C@H](NC(=O)Cc1cc(F)cc(F)c1)C(=O)N[C@@H]1C(=O)N(C)c2ccccc2-c2ccccc21", "note": "[γ-secretase inhibitor XX, N-[(1S)-2-[[(7S)-6,7-dihydro-5-methyl-6-oxo-5H-dibenz[b,d]azepin-7-yl]amino]-1-methyl-2-oxoethyl]-3,5-difluoro-benzeneacetamide]", "values": [
      {"measurement": "screen outcome, step 5 (increase of pre-delta cells, fewer polyhormonal cells)", "setting": "delta progenitor cells [1]", "value": "primary hits"}
    ]},
    {"smiles": "CC(C)[C@H]1C(=O)N[C@H](CO)Cc2c[nH]c3cccc(c23)N1C", "note": "[indolactam V, (10S,13S)-13-(hydroxymethyl)-9-methyl-10-propan-2-yl-3,9,12-triazatricyclo[6.6.1.0^4,15]pentadeca-1,4(15),5,7-tetraen-11-one]", "values": [
      {"measurement": "screen outcome, step 5 (increase of pre-delta cells, fewer polyhormonal cells)", "setting": "delta progenitor cells [1]", "value": "primary hits"},
      {"measurement": "dose response, monohormonal SCδ cells", "setting": "pre-delta cells [2]; FIG. 2F, FIG. 24B", "value": "dose dependent increase in monohormonal SCδ cells"},
      {"measurement": "cell loss at higher concentration", "setting": "pre-delta cells [2]", "value": "severe cell loss"},
      {"measurement": "screen outcome, step 6 (increase of monohormonal SC-δ cells)", "setting": "pre-delta cells [2]; library screened at 20 μM, 2 μM and 0.2 μM", "value": "primary hits"}
    ]},
    {"smiles": "CCN(CC)CCCCNc1ncc2cc(-c3cc(OC)cc(OC)c3)c(NC(=O)NC(C)(C)C)nc2n1", "note": "[PD173074, 1-tert-butyl-3-[2-[4-(diethylamino)butylamino]-6-(3,5-dimethoxyphenyl)pyrido[2,3-d]pyrimidin-7-yl]urea]", "values": [
      {"measurement": "somatostatin expression in PP cells", "setting": "PDX1^+/NKX6.1^− PP cells", "value": "induced a small population of somatostatin expression"}
    ]},
    {"smiles": "Cc1cccc(-c2[nH]ncc2-c2ccc3ncccc3n2)n1", "note": "[Alk5 inhibitor II, 2-[5-(6-methylpyridin-2-yl)-1H-pyrazol-4-yl]-1,5-naphthyridine]", "values": [
      {"measurement": "monohormonal SC-delta cells on omission of the compound from stage 5", "setting": "delta progenitor cells [3]; Indolactam V and γ-secretase inhibitor XX without Alk5inh II, FIG. 24C", "value": "significant reduction in monohormonal SC-delta cells"},
      {"measurement": "resulting cells express somatostatin", "setting": "delta progenitor cells [3]; delta progenitor cells treated with Alk5i II, FIG. 1D", "value": "approximately 8%"},
      {"measurement": "SC-α cells population", "setting": "delta progenitor cells [3]; stage 5, flow cytometry", "value": "14.78±1.72", "unit": "%"},
      {"measurement": "SC-β cells population", "setting": "delta progenitor cells [3]; stage 5, flow cytometry", "value": "5.20±0.72", "unit": "%"},
      {"measurement": "SST^+GCG^+INS^+ cells", "setting": "delta progenitor cells [3]; stage 5, flow cytometry", "value": "15.46±15.07", "unit": "%"},
      {"measurement": "SST^−GCG^−INS^− cells", "setting": "delta progenitor cells [3]; stage 5, flow cytometry", "value": "20.97±7.59", "unit": "%"},
      {"measurement": "polyhormonal cells", "setting": "delta progenitor cells [3]; stage 5, flow cytometry", "value": "54.88±6.74", "unit": "%"},
      {"measurement": "pre-delta cells (somatostatin positive, insulin and glucagon negative)", "setting": "delta progenitor cells [3]; stage 5, flow cytometry", "value": "4.11±1.12", "unit": "%"}
    ]},
    {"smiles": "C=C[C@@]1(C)CC(=O)[C@]2(O)[C@@]3(C)[C@@H](O)CCC(C)(C)[C@@H]3[C@H](O)[C@H](OC(C)=O)[C@@]2(C)O1", "note": "[forskolin, [(3R,4aR,5S,6S,6aS,10S,10aR,10bS)-3-ethenyl-6,10,10b-trihydroxy-3,4a,7,7,10a-pentamethyl-1-oxo-5,6,6a,8,9,10-hexahydro-2H-benzo[f]chromen-5-yl]acetate]", "values": [
      {"measurement": "SCδ cells", "setting": "pre-delta cells [4]; 200 μM for 7 days, stage 6, flow cytometry", "value": "17.51±0.88", "unit": "%"},
      {"measurement": "percentage of SC-δ cells after long-term culture", "setting": "pre-delta cells [4]; forskolin withdrawn from S3 media, cultured for additional two weeks", "value": "31.15±1.30", "unit": "%"},
      {"measurement": "SC-α cells", "setting": "pre-delta cells [4]; stage 6, flow cytometry", "value": "0.79±0.14", "unit": "%"},
      {"measurement": "SST^+GCG^+INS^+ cells", "setting": "pre-delta cells [4]; stage 6, flow cytometry", "value": "11.02±0.60", "unit": "%"},
      {"measurement": "SST^−GCG^+INS^+ cells", "setting": "pre-delta cells [4]; stage 6, flow cytometry", "value": "2.36±0.36", "unit": "%"},
      {"measurement": "cell loss at higher concentration", "setting": "pre-delta cells [2]", "value": "severe cell loss"}
    ]}
  ]
}
